How the values were obtained:
KRas^G12D = biological target: T1, KRas^G12D (Homo sapiens, UniProt P01116, G12D); assay: KRas binding assay (TR-FRET tracer displacement), KRas G12D
T1 construct: Biotinylated KRas (corresponding to amino acids 1-169, produced at Accelegan Inc.); biotin (biotinylated); purchased Accelegan Inc

KRas^G12R = biological target: T2, KRas^G12R (Homo sapiens, UniProt P01116, G12R); assay: KRas binding assay (TR-FRET tracer displacement), KRas G12R
T2 construct: Biotinylated KRas (corresponding to amino acids 1-169, produced at Accelegan Inc.); biotin (biotinylated); purchased Accelegan Inc

KRas^G12V = biological target: T3, KRas^G12V (Homo sapiens, UniProt P01116, G12V); assay: KRas binding assay (TR-FRET tracer displacement), KRas G12V
T3 construct: Biotinylated KRas (corresponding to amino acids 1-169, produced at Accelegan Inc.); biotin (biotinylated); purchased Accelegan Inc

[1] = test system: KRas-mediated phosphorylation of ERK in AsPC-1 cells; assay: Inhibition of KRas-mediated phosphorylation of ERK (Cisbio HTRF pERK), AsPC-1 cells; assay type: cell-based; settings: Homo sapiens; for IC50: ASPC1, AsPC-1 cells, HTRF pERK; for inhibition at 0.1 µM: ASPC1, 3 h, single point, 100 nM compound, 3 hrs, AsPC-1 cells
How it was run: (§1)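 6,000 cells/well; cpd 10 uM top, 3-fold x10, 0.8% DMSO final; 3 hr incubation; Min ctrl Trametinib 0.2 uM; lysis 40 min 4° C shaking; d2 + Cryptate Ab mix, 2 hr RT; HTRF read.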

[2] = test system: KRas-mediated phosphorylation of ERK in H727 cells; assay: Inhibition of KRas-mediated phosphorylation of ERK (Cisbio HTRF pERK), H727 cells; assay type: cell-based; settings: Homo sapiens; for IC50: NCI-H727, H727 cells, HTRF pERK; for inhibition at 0.1 µM: NCI-H727, 3 h, single point, 100 nM compound, 3 hrs, H727 cells
How it was run: as §1

[3] = test system: KRas-mediated phosphorylation of ERK in H460 cells; assay: Inhibition of KRas-mediated phosphorylation of ERK (Cisbio HTRF pERK), H460 cells; assay type: cell-based; settings: Homo sapiens; for inhibition at 0.1 µM: NCI-H460, 3 h, single point, 100 nM compound, 3 hrs; for IC50: NCI-H460, HTRF pERK
Procedure: (§2) Inhibition of KRas Phosphorylation of ERK (HTRF) by Exemplary Compounds of Formula (I) Cisbio HTRF Advanced PERK Assay Catalog #64[…] […] Add 10 mL of media to stop trypsinizing. Pipette the cells into a conical bottom 50 mL centrifuge tube and centrifuge 5 min×1000 rpm. […] Re-suspend the cell pellet in media, take a cell count, and then adjust the cell density using fresh media. […] Seed 6,000 cells into cell culture plate with 50 μL media. […] Use Tecan to complete the compound addition. Compounds start from 10 uM top, 3-fold dilution, and 10 doses. The final DMSO concentration is 0.8%. Dispensed 0.2 uM Trametinib as Min control. […] Incubate cell plate for 3 hrs in the incubator. […] Dilute 1 volume of 4× lysis buffer with 3 volumes of deionized water. […] Keep lysis buffer on the ice. […] At the end of the compound treatment, flick-off the media. […] Add 35 μL of lysis buffer per well using a Multidrop Combi. Then place on a plate agitator shaking at 300 rpm at 4° C. for 40 mins. […] Make up the HTRF antibody buffer. For each assay plate, mix 50 μL of d2-conjugate antibody with 950 μL of detection buffer. Similarly, mix 50 μL of Cryptate antibody with 950 μL of detection buffer. Then mix the two diluted antibodies together. […] Dispense 3.4 μL the antibody buffer to wells of an empty assay plate. Seal the plate and centrifuge plate 30 sec×1000 rpm. […] At the end of the 4° C. lysis, centrifuge the lysate plates 3 mins×1500 rpm. […] Use the Bravo to transfer 13.6 μL of lysate from cell culture plate to assay plate. Then incubate assay plate for 2 hrs at room temperature. 8. At the end of incubation, read plate on the Envision after centrifuging plate 30 sec×1000 rpm.

[4] = test system: KRas-mediated phosphorylation of ERK in HCT116 cells; assay: Inhibition of KRas-mediated phosphorylation of ERK (Cisbio HTRF pERK), HCT116 cells; assay type: cell-based; settings: Homo sapiens; for inhibition at 0.1 µM: HCT-116, 3 h, single point, 100 nM compound, 3 hrs; for IC50: HCT-116, HTRF pERK
Procedure: as §2

[5] = test system: KRas-mediated phosphorylation of ERK in A549 cells; assay: Inhibition of KRas-mediated phosphorylation of ERK (Cisbio HTRF pERK), A549 cells; assay type: cell-based; settings: Homo sapiens, HTRF pERK
Procedure: as §2

T3 sequence (P01116 1-169 isoform P01116-2 G12V): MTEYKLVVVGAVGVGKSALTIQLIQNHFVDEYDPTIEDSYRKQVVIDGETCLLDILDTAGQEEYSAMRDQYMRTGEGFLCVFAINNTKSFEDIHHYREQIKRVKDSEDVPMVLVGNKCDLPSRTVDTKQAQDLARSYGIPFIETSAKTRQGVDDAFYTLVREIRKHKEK
T1 sequence (P01116 1-169 isoform P01116-2 G12D): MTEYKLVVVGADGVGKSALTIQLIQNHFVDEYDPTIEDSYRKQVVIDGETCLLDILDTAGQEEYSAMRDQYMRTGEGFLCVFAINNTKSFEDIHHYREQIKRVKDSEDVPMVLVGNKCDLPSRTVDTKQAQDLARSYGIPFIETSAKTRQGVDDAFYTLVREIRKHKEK
T2 sequence (P01116 1-169 isoform P01116-2 G12R): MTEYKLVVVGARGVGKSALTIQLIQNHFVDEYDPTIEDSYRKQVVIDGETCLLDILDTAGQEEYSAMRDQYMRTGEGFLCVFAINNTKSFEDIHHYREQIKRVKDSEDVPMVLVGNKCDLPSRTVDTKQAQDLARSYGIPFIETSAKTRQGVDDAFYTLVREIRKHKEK

| Structure (SMILES) | IC50 (KRas^G12D) | IC50 (KRas^G12R) | IC50 (KRas^G12V) | IC50 [1] | IC50 [2] | IC50 [5] | IC50 [3] | IC50 [4] | inhibition at 0.1 µM [3] | inhibition at 0.1 µM [4] | inhibition at 0.1 µM [1] | inhibition at 0.1 µM [2] |
| --- | --- | --- | --- | --- | --- | --- | --- | --- | --- | --- | --- | --- |
| CCc1c(F)ccc2cc(O)cc(-c3ncc4c(N5CCC[C@@](C)(O)C5)nc(OCC5(CN)CC5)nc4c3F)c12 [Example 536, (R)-1-(2-((1-(aminomethyl)cyclopropyl)methoxy)-7-(8-ethyl-7-fluoro-3-hydroxynaphthalen-1-yl)-8-fluoropyrido[4,3-d]pyrimidin-4-yl)-3-methylpiperidin-3-ol] | 5 nM | 9 nM | 5 nM | 4550 nM | 3440 nM |  |  |  | -9% | 9% |  |  |
| CCc1c(F)ccc2cc(O)cc(-c3ncc4c(NC[C@@H]5C[C@H](CO)NC5=O)nc(OC[C@@]56CCCN5C[C@H](F)C6)nc4c3F)c12 [Example 576, (3S,5R)-3-(((7-(8-ethyl-7-fluoro-3-hydroxynaphthalen-1-yl)-8-fluoro-2-(((2R,7aS)-2-fluorotetrahydro-1H-pyrrolizin-7a(5H)-yl)methoxy)pyrido[4,3-d]pyrimidin-4-yl)amino)methyl)-5-(hydroxymethyl)pyrrolidin-2-one] | 45 nM | 37 nM | 10 nM |  | > 10000 nM |  |  |  | -3% | -15% | 1% | -2% |
| CCc1c(F)ccc2cc(O)cc(-c3ncc4c(N5CCC[C@@](C)(O)C5)nc(OCC5(CN(C)C)CC5C)nc4c3F)c12 (stereo partly drawn) [Example 702, (3R)-1-(2-((1-((dimethylamino)methyl)-2-methylcyclopropyl)methoxy)-7-(8-ethyl-7-fluoro-3-hydroxynaphthalen-1-yl)-8-fluoropyrido[4,3-d]pyrimidin-4-yl)-3-methylpiperidin-3-ol] |  |  |  | 32 nM | 149 nM |  |  |  | 61% | 37% | 56% | 7% |
| CCc1c(F)ccc2cc(O)cc(-c3ncc4c(N5CC6COCC(CO)(C5)C6(F)F)nc(OC[C@@]56CCCN5C[C@H](F)C6)nc4c3F)c12 (stereo partly drawn) [Example 645, 4-(4-(9,9-difluoro-1-(hydroxymethyl)-3-oxa-7-azabicyclo[3.3.1]nonan-7-yl)-8-fluoro-2-(((2R,7aS)-2-fluorotetrahydro-1H-pyrrolizin-7a(5H)-yl)methoxy)pyrido[4,3-d]pyrimidin-7-yl)-5-ethyl-6-fluoronaphthalen-2-ol] | 313 nM | 257 nM | 139 nM | 4640 nM | 3720 nM |  |  |  | 4% | 6% |  |  |
| CCc1c(F)ccc2cc(O)cc(-c3ncc4c(NC5CCCc6c(C(=O)N(C)C)nn(C)c65)nc(OC[C@@]56CCCN5C[C@H](F)C6)nc4c3F)c12 (stereo partly drawn) [Example 672, 7-((7-(8-ethyl-7-fluoro-3-hydroxynaphthalen-1-yl)-8-fluoro-2-(((2R,7aS)-2-fluorohexahydro-1H-pyrrolizin-7a-yl)methoxy)pyrido[4,3-d]pyrimidin-4-yl)amino)-N,N,1-trimethyl-4,5,6,7-tetrahydro-1H-indazole-3-carboxamide] | 8 nM | 4 nM | 5 nM | 469 nM | 1260 nM | 541 nM |  |  |  |  |  |  |
| CCc1c(F)ccc2cc(O)cc(-c3ncc4c(N5CC6C(=O)NC(=O)C6C5C)nc(OC[C@@]56CCCN5C[C@H](F)C6)nc4c3F)c12 (stereo partly drawn) [Example 590, 5-(7-(8-ethyl-7-fluoro-3-hydroxynaphthalen-1-yl)-8-fluoro-2-(((2R,7aS)-2-fluorohexahydro-1H-pyrrolizin-7a-yl)methoxy)pyrido[4,3-d]pyrimidin-4-yl)-4-methyltetrahydropyrrolo[3,4-c]pyrrole-1,3(2H,3aH)-dione] | 2 nM | 2 nM | 3 nM | 505 nM | 833 nM | 494 nM |  |  |  |  |  |  |
| CCc1c(F)ccc2cc(O)cc(-c3ncc4c(NCC5(C)CC(=O)NC5=O)nc(OC[C@@]56CCCN5C[C@H](F)C6)nc4c3F)c12 (stereo partly drawn) [Example 566, 3-(((7-(8-ethyl-7-fluoro-3-hydroxynaphthalen-1-yl)-8-fluoro-2-(((2R,7aS)-2-fluorotetrahydro-1H-pyrrolizin-7a(5H)-yl)methoxy)pyrido[4,3-d]pyrimidin-4-yl)amino)methyl)-3-methylpyrrolidine-2,5-dione] | 3 nM | < 2 nM | 3 nM | 760 nM | 138 nM | 130 nM | 47 nM | 72 nM |  |  |  |  |

Continued, in another order:

| IC50 (KRas^G12D) | IC50 (KRas^G12R) | IC50 (KRas^G12V) | IC50 [1] | IC50 [2] | IC50 [5] | IC50 [3] | IC50 [4] | Structure (SMILES) | inhibition at 0.1 µM [3] | inhibition at 0.1 µM [4] | inhibition at 0.1 µM [1] | inhibition at 0.1 µM [2] |
| --- | --- | --- | --- | --- | --- | --- | --- | --- | --- | --- | --- | --- |
|  |  |  | 198 nM | 240 nM | 216 nM | 107 nM | 208 nM | CCc1c(F)ccc2cc(O)cc(-c3ncc4c(N5CCC[C@H](C)C5)nc(OC[C@@]56CCCN5C[C@H](F)C6)nc4c3F)c12 [Example 541, 5-ethyl-6-fluoro-4-(8-fluoro-2-(((2R,7aS)-2-fluorohexahydro-1H-pyrrolizin-7a-yl)methoxy)-4-((S)-3-methylpiperidin-1-yl)pyrido[4,3-d]pyrimidin-7-yl)naphthalen-2-ol] |  |  |  |  |
| 79 nM | 10 nM | 9 nM | 2380 nM | 410 nM | 742 nM |  |  | CCc1c(F)ccc2cc(O)cc(-c3ncc4c(NC5CC6(CCCO6)C5)nc(OC[C@@]56CCCN5C[C@H](F)C6)nc4c3F)c12 (stereo partly drawn) [Example 554, 4-(4-(5-oxaspiro[3.4]octan-2-ylamino)-8-fluoro-2-(((2R,7aS)-2-fluorohexahydro-1H-pyrrolizin-7a-yl)methoxy)pyrido[4,3-d]pyrimidin-7-yl)-5-ethyl-6-fluoronaphthalen-2-ol] |  |  |  |  |
|  |  |  | 1540 nM | 245 nM | 357 nM | 138 nM |  | CCc1c(F)ccc2cc(O)cc(-c3ncc4c(N5C[C@H]6C[C@@H](C5)C(=O)NC6=O)nc(OC[C@@]56CCCN5C[C@H](F)C6)nc4c3F)c12 [Example 591, (1R,5S)-7-(7-(8-ethyl-7-fluoro-3-hydroxynaphthalen-1-yl)-8-fluoro-2-(((2R,7aS)-2-fluorotetrahydro-1H-pyrrolizin-7a(5H)-yl)methoxy)pyrido[4,3-d]pyrimidin-4-yl)-3,7-diazabicyclo[3.3.1]nonane-2,4-dione] |  |  |  |  |
| < 2 nM | < 2 nM | < 2 nM | 312 nM | 603 nM | 822 nM |  |  | CCc1c(F)ccc2cc(O)cc(-c3ncc4c(N5CCC[S+]([O-])CC5)nc(OC[C@@]56CCCN5C[C@H](F)C6)nc4c3F)c12 (stereo partly drawn) [Example 558, 4-(7-(8-ethyl-7-fluoro-3-hydroxynaphthalen-1-yl)-8-fluoro-2-(((2R,7aS)-2-fluorohexahydro-1H-pyrrolizin-7a-yl)methoxy)pyrido[4,3-d]pyrimidin-4-yl)-1,4-thiazepane 1-oxide] |  |  |  |  |
| 300 nM | 59 nM | 62 nM | > 10000 nM | > 10000 nM |  |  |  | CCc1c(F)ccc2cc(O)cc(-c3ncc4c(N5C[C@H]6C[C@@H](C5)[C@@H](O)[C@@H]6O)nc(OC[C@@]56CCCN5C[C@H](F)C6)nc4c3F)c12 (single isomer, unassigned) [Example 571] |  |  |  |  |
